Assay results as given in paper PMC8110907, “Arabidopsis Carboxylesterase 20 Binds Strigolactone and Increases Branches and Tillers When Ectopically Expressed in Arabidopsis and Maize” (Frontiers in Plant Science, 2021).

How the values were obtained:
[1] = target: T1, AtCXE20 (carboxylesterase 20) (Arabidopsis thaliana, UniProt Q9LVB8); test: esterase inhibition at […] (p-nitrophenyl acetate substrate); also decreased intrinsic fluorescence at […]; format: biochemical
T1 construct: gene CXE20; recombinant AtCXE20 with 20-amino acid N-terminal peptide fusion including a 6-histidine tag, expressed in E. coli
T1 sequence (Q9LVB8 1-327): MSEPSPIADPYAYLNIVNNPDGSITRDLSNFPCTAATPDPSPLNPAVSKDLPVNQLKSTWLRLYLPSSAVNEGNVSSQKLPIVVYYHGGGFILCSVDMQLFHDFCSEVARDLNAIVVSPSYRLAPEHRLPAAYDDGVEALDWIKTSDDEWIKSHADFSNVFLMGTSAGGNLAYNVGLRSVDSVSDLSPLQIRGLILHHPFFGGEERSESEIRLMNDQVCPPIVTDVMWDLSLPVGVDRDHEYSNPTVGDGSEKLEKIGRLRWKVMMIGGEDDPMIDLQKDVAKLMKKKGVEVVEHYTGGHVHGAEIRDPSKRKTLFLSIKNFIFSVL

[2] = target: T1, AtCXE20 (carboxylesterase 20); test: esterase assay with p-nitrophenyl acetate, Michaelis-Menten kinetics; format: biochemical
[3] = substrate: CC(=O)Oc1ccc([N+](=O)[O-])cc1; test: purified protein; format: biochemical, Arabidopsis thaliana; conditions: catalytic triad S166, H302, D272 (homology model)

## CC1=CC(O/C=C2/C(=O)OC3c4ccccc4CC23)OC1=O (racemic) [GR24, rac-GR24]
[1]
  esterase inhibition at 20 μM (p-nitrophenyl acetate substrate); also decreased i: substantial inhibition was observed with the synthetic SL racemic mixture GR24

## CC1=C[C@H](O/C=C2/C(=O)O[C@@H]3C4=C(CCCC4(C)C)C[C@H]23)OC1=O [5-DS, 5-deoxystrigol]
[2]
  Ki: 5 µM

B1: AtCXE20 (carboxylesterase 20) (Arabidopsis thaliana) (protein)
chain: MSEPSPIADPYAYLNIVNNPDGSITRDLSNFPCTAATPDPSPLNPAVSKDLPVNQLKSTWLRLYLPSSAVNEGNVSSQKLPIVVYYHGGGFILCSVDMQLFHDFCSEVARDLNAIVVSPSYRLAPEHRLPAAYDDGVEALDWIKTSDDEWIKSHADFSNVFLMGTSAGGNLAYNVGLRSVDSVSDLSPLQIRGLILHHPFFGGEERSESEIRLMNDQVCPPIVTDVMWDLSLPVGVDRDHEYSNPTVGDGSEKLEKIGRLRWKVMMIGGEDDPMIDLQKDVAKLMKKKGVEVVEHYTGGHVHGAEIRDPSKRKTLFLSIKNFIFSVL
notes: recombinant AtCXE20 with 20-amino acid N-terminal peptide fusion including a 6-histidine tag, expressed in E. coli
[3]
  Km: 251 ± 26 µM
